Data from US11365263B2, “Bifunctional cytotoxic agents containing the CTI pharmacophore” (PFIZER INC., priority 2015, dated 2022).

Experiments:
Assay type in all cases: cell-based
[1] = system: N87 (human gastric carcinoma); experiment: Cytotoxicity assay for payloads (MTS), N87; details: 96 h, N87 cells, four days incubation, read-out: Free payload potency (IC50), N87
Protocol: (§1) Cancer cell lines were obtained from ATCC (Manassas, Va.). N87 (human gastric carcinoma derived from metastatic liver site). HL60 (leukemia) and MDA-MB-361 DYT2 (human breast carcinoma MDA-MB-361) were grown in RPMI 1640 media. All media were supplemented with 10% fetal bovine serum, 1% sodium pyruvate, and 1% L-glutamine (Invitrogen, Grand Island, N.Y.). Human umbilical vein endothelial cells (HUVEC) were obtained from Lonza (Allendale, N.J.) and maintained in EGM2 media supplemented with EGM-2 SingleQuots (Lonza #CC-4176). All cells were maintained in a humidified incubator (37° C., 5% CO2).
(§2) Cytotoxicity Assay Procedure for Payloads
(§3) Cells in 100 μl medium were cultured in a 96-well plate. Cancer cell lines treated with the indicated compounds by adding 50 μl of 3× stocks in duplicate at 10 concentrations. Cells were incubated with compounds for four days, then 30 μl of CellTiter® 96 AQueous One MTS Solution (Promega Cat #G3582) was added to the cells, incubated 1.5 hr at 37° C., then absorbance measured at 490 nm on a Victor plate reader (Perkin Elmer, Waltham, Mass.). Relative cell viability was determined as a percentage of untreated control wells. IC50 values were calculated using four parameter logistic model #203 with XLfit v4.2 (IDBS, Guildford, Surry, UK).

[2] = system: MDA-MB-361 DYT2 (human breast carcinoma); experiment: Cytotoxicity assay for payloads (MTS), MDA-MB-361 DYT2; details: 96 h, MDA-MB-361 DYT2 cells, four days incubation, read-out: Free payload potency (IC50), DYT2
Protocol: as §1, §2, §3

[3] = system: HL60 (leukemia); experiment: Cytotoxicity assay for payloads (MTS), HL60; details: Homo sapiens, HL-60, 96 h, HL60 cells, four days incubation, read-out: Free payload potency (IC50), HL60
Protocol: as §1, §2, §3

SMILES	IC50 [1]	IC50 [2]	IC50 [3]
[2H]C([2H])(CC([2H])([2H])C(=O)N1C[C@@H](CCl)c2c1cc(OC(C)=O)c1scc(C)c21)C(=O)N1C[C@@H](CCl)c2c1cc(OC(C)=O)c1scc(C)c21 [Compound 88]	0.041 nM	0.004 nM	0.41 nM
[2H]C([2H])(CC(=O)N1C[C@@H](CCl)c2c1cc(OC(C)=O)c1scc(C)c21)CC(=O)N1C[C@@H](CCl)c2c1cc(OC(C)=O)c1scc(C)c21 [Compound 87]	0.036 nM	0.002 nM	0.349 nM
[2H]C([2H])(C(=O)N1C[C@@H](CCl)c2c1cc(OC(C)=O)c1scc(C)c21)C([2H])([2H])C([2H])([2H])C(=O)N1C[C@@H](CCl)c2c1cc(OC(C)=O)c1scc(C)c21 [Compound 89]	0.041 nM	0.002 nM	0.302 nM
CC(=O)Oc1cc2c(c3c(C)csc13)[C@H](CCl)CN2C(=O)C12C3C4C1C1C2C3C41C(=O)N1C[C@@H](CCl)c2c1cc(OC(C)=O)c1scc(C)c21 (stereo partly drawn) [Compound 60, pentacyclo[4.2.0.0^˜2,5^˜.0^˜3,8^˜.0^˜4,7^˜]octane-1,4-diylbis[carbonyl(8S)-8-(chloromethyl)-1-methyl-7,8-dihydro-6H-thieno[3,2-e]indole-6,4-diyl]diacetate]	0.122 nM	0.079 nM	0.009 nM
